Source: patent publication US10603304B1, “Compositions and methods for treating anxiety” (priority 2015, dated 2020)

Assays:
[1] = tested on: lynx2KO mice; test: fear extinction experiment (fear associated with a noise after shock training); format: in vivo; conditions: lynx2KO mice with administration of mec compared to lynx2KO mice without mec (FIGS. 2B-2C)
Method: FIG. 2B is a graph of fear observed in wild type (black circles) and lynx2KO mice (white triangles) after fear training (an electric shock depicted in yellow) associated with a noise for 24 hours followed by the same noise without the shock to measure the mouse's capability to lose the fear, according to embodiments of the present invention.
FIG. 2C is a graph of fear observed in lynx2KO mice during the fear extinction experiment of FIG. 2B with a group of lynx2KO mice receiving mecamylamine (mec), according to embodiments of the present invention.

[2] = tested on: lynx2KO mice; test: light dark box experiment (latency to enter dark enclosed environment); format: in vivo; conditions: lynx2KO mice under chronic stress with administration of mec, as opposed to lynx2KO mice without mec (FIG. 2A)
Description: FIG. 2A is a graph of the time in seconds (latency) for wild type (WT) (black bars) or lynx2 knock out (KO) (white bars) mice to enter a dark enclosed environment under conditions of saline, chronic stress, or chronic stress with administration of mecamylamine (mec) as indicated, according to embodiments of the present invention.

[3] = tested on: amygdala (EC) neurons of lynx2KO mice; test: long term depression (LTD) of evoked fEPSPs in brain slices after theta pulse stimulations; format: cell-based; conditions: brain slices from lynx2KO mice in ACSF solution with 20 mM methyllycaconitine (MLA), theta pulse stimulations (FIG. 4D)
Method: FIG. 4D is a graph of stimulating electrode traces from long term depression (LTD) experiments using extracellular recordings for evoked field excitatory post-synaptic potentials (fEPSPs) in […] (EC) brain slices in ACSF solution with […] methyllycaconitine (MLA) from lynx2 knockout (KO) mice before (left of zero minutes) and after (right of zero minutes) theta pulse stimulations (TSP), according to embodiments of the present invention.
The animals were anesthetized by isoflurane in an anesthetic chamber to a tolerant state (ml/kg) and euthanized through decapitation. […]
Field excitatory postsynaptic potentials (fEPSPs) were evoked by 0.05 Hz test stimulus though a bipolar stimulating electrode placed on external Capsule (EC), and a glass pipette as recording electrode was filled with ACSF and placed in BLA. […] Access resistances were continuously monitored and neurons with more than 20% change of series resistance were excluded from data analysis.
The plasticity ratio was calculated from the average EPSP amplitude of the last 10 mins of baseline recording and the last 15 mins after high frequency or low stimulus, for LTP and LTD studies, respectively. […] For all experiments, treatment effects were analyzed with one-way ANOVA, followed by the appropriate post hoc tests. […]

SMILES | ability to unlearn a fear associated with a noise (fear extinction) [1] | latency to dark [2] | rescue of induced long term depression (LTD) [3]
CNC1(C)C2CCC(C2)C1(C)C (stereo not drawn) [mecamylamine] | increased ability to unlearn a fear | increased latency to dark | 
CCN1C[C@]2(COC(=O)c3ccccc3N3C(=O)C[C@H](C)C3=O)CC[C@H](OC)[C@@]34[C@@H]5C[C@H]6[C@H](OC)[C@@H]5[C@](O)(C[C@@H]6OC)[C@@](O)([C@@H](OC)[C@H]23)[C@@H]14 [methyllycaconitine] |  |  | able to rescue induced long term depression (LTD)
